Measurements taken from US7052908B2, “Androgen receptor coactivators” (University of Rochester, priority 1998, dated 2006).
Changes are numbered by the printed parent chain.

T1: mARe708k (Homo sapiens, UniProt P10275)
T1 construct: expressed in transfected cells; host or cells: DU145
T1 sequence (P10275 1-920 E710K): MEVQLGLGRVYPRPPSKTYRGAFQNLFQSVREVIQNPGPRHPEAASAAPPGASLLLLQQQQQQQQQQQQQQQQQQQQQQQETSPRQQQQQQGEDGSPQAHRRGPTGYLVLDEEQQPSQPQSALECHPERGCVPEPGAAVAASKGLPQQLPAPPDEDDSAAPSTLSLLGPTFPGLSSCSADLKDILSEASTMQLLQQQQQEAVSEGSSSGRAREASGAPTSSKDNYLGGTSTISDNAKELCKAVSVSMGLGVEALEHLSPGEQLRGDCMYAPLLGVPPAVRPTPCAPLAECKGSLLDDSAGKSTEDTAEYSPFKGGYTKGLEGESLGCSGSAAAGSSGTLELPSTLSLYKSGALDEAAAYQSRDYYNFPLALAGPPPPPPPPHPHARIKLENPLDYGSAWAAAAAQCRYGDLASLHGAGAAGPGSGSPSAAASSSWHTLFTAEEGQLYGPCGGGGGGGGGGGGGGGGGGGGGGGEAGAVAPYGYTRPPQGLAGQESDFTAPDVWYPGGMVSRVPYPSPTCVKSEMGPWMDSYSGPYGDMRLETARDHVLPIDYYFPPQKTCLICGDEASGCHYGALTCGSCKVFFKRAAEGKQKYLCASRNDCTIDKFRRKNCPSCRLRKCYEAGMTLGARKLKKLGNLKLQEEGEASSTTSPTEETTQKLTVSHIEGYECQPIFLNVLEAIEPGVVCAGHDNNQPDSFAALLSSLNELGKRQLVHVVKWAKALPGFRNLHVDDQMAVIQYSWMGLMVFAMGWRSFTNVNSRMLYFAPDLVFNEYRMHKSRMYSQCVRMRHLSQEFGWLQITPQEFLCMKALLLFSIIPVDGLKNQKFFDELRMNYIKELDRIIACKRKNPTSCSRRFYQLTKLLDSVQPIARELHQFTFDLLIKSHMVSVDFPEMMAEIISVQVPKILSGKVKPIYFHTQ

T2: mARe708k (Homo sapiens, UniProt P10275, E710K)
T2 construct: expressed in transfected cells; host or cells: DU145
T2 sequence (P10275 1-920 E710K): T1 sequence (P10275 1-920 E710K)

T3: wtAR (Homo sapiens, UniProt P10275)
T3 sequence (P10275 1-920): T1 sequence (P10275 1-920 E710K) with K710E

T4: AR (Homo sapiens, UniProt P10275)
T4 sequence (P10275 1-920): T1 sequence (P10275 1-920 E710K) with K710E

B1: C-terminal region of ARA54: a.a. 361–471 of ARA54, dominant negative inhibitor of AR-mediated transcription (protein)
chain: ANFNQSGNIADSSLSFTFTNSSNGPNLITTQTNSQALSQPIASSNVHDNFMNNEITASKIDDGNNSKPLSPGWTDQTAYNAFGITTGMFNTTTMDDVYNYLFDDEDTPPNPKKERNEYLQADEANKRLLDQRYGKRVIQKALEEMESKEWLEKNSKSCPCCGTPIEKLDGCNKMTCTGCMQYFCWICMGSLSRANPYKHFNDPGSPCFNRLFYAVDVDDDIWEDE

Legend:
mARt877s = test: AR transactivation, transient transfection CAT reporter assay, mutant AR; assay type: cell-based, human
mARe708k [1] = biological target: T1, mARe708k; test: as above; assay type: cell-based; details: mARe708k cotransfected with Rb and/or ARA70; 10 nM E2 or 1 μM HF
mARe708k [2] = biological target: T2, mARe708k; test: as above; assay type: cell-based
AR [3] = test: Mammalian two-hybrid assay with CAT reporter in DU145 cells; assay type: cell-based, human; details: DU145; 10 nM DHT, or E2 or HF
Description: The mammalian two-hybrid system employed was essentially the protocol of Clontech (California), with the following modifications. […] The hinge and LBD of wtAR were then inserted into pGAL0. Similarly, the VP16 activation domain was fused to pCMX under the control of a CMV promoter, and designated pCMX-VP16 (provided by Dr. R. M. Evan).

wtAR = biological target: T3, wtAR; test: AR transactivation, transient transfection with MMTV-CAT reporter in DU145 cells; details: for AR transcriptional activity induction: 10 nM E2 or 1 μM HF
AR [4] = biological target: T4, AR; test: AR-activated transcription (CAT) in transfected H1299 cells; assay type: cell-based; parameters: expressed in transfected cells; host or cells: DU145 (A1), NCI H1299 (A7), PC3 (A8); details: H1299 cells with endogenous ARA54
Description: Since the C-terminal region of ARA54 (a.a. 361–471 of SEQ ID NO:2) isolated from prostate cDNA library has shown to be sufficient to interact with AR in yeast two-hybrid assays, we further investigated whether it could squelch the effect of ARA54 on AR-activated transcription in H1299 cells, which contain endogenous ARA54. The C-terminal region of ARA54 inhibits AR-mediated transcription by up to 70%; coexpression of exogenous full-length ARA54 reverses this squelching effect in a dose-dependent manner.
Human small lung carcinoma H1299 cell line, which has no endogenous AR protein, were transfected with AR and ARA24/Ran. Because ARA24/Ran is one of the most abundant and ubiquitously expressed proteins in various cells, both sense and antisense ARA24/Ran mammalian expression plasmids were tested.

Molecule | response of Art877a transactivation to ligand (mARt877s; absence of ARA54, E2 10^-9-10^-7 M, HF 10^-7-10^-5 M) | response of LNCaP mAR to ligand compared to wtAR (mARt877s; compared to wtAR) | AR transcriptional activity induction (mARe708k [1]) | agonistic activity toward ARe708k (mARe708k [2]) | CAT activity with GAL0AR and VP16-ARA55 cotransfected (AR [3]) | response of wtAR transactivation to ligand (wtAR; E2 10^-9-10^-7 M or HF 10^-7-10^-5 M, in the presence or absence of ARA54) | AR transcriptional activity induction (wtAR; wild type AR cotransfected with Rb and ARA70) [fold] | AR transcriptional activity induction (wtAR; wild type AR cotransfected with Rb or ARA70) | response of wtAR transcriptional activity to ligand (wtAR; without ARA55, only at higher concentrations (10^-7 M for E2, 10^-5 M for HF)) | inhibition of AR-mediated transcription (AR [4])
CC(C)(O)C(=O)Nc1ccc([N+](=O)[O-])c(C(F)(F)F)c1 [HF, hydroxyflutamide, reference compound] | responded | responded much better | almost no induction | no agonistic activity | not induced | responded only marginally | 12 | 3–4 fold | responded marginally | –
B1 | – | – | – | – | – | – | – | – | – | up to 70%
